{"source": "patent US8568763B2", "about": "“Compositions and coatings for delivery of therapeutic agents” (The University of Tennessee Research Foundation, priority 2004, dated 2013)", "key": {"in vivo": {"assay": "in vivo", "conditions": "pig", "method": "Preimplantation and postexplantation grafts, blood and tissues were sent to the HPLC Drug Monitoring Laboratory at the University of Texas Medical School at Houston, (6431 Fannin, Suite 6.233, Houston Tex. 77030) for rapamycin level quantification. Analyses were performed using HPLC/UV assays developed by Dr Kimberly L. Napoli, the director of the laboratory (Napoli et al., “Distribution of Sirolimus in Rat Tissue,” Clin. Biochem. 30:135-42 (1997), which is hereby incorporated by reference in its entirety). Whole blood was collected on the first three postoperative days and at euthanasia to quantitate systemic exposure to rapamycin. To confirm elution of rapamycin from the ePTFE and deposition of drug in the native arterial wall, explanted grafts and adjacent iliac artery were snap frozen in liquid nitrogen. The tissues were packaged on dry ice and sent for rapamycin quantification. The kinetics of elution were extrapolated by sacrificing nine animals (n=3 per time point) on postoperative day 7, 14 and 28. These animals were separate from the twenty-two animals used to evaluate for changes in neointimal hyperplasia.\nSimilar drug levels were detected despite sterilization. Similarly, the rapamycin fraction was detected 18 minutes after instilling the sample onto the HPLC column irrespective of sterilization. […] Levels decreased from 1000 μg preimplatation to 26.7 μg at one week post explantation. Drug (2.9 μg/gm) was detected in the adjacent arterial wall on postoperative day 7 and persisted until euthanasia."}, "[1]": {"conditions": "90 days, rapamycin-eluting stents, Carter et al; cited from earlier work"}, "[2]": {"conditions": "blood of patients prophylaxed against kidney transplant rejection; cited from earlier work"}}, "data": [{"smiles": "CO[C@H]1C[C@@H]2CC[C@@H](C)[C@@](O)(O2)C(=O)C(=O)N2CCCC[C@H]2C(=O)O[C@H]([C@H](C)C[C@@H]2CC[C@@H](O)[C@H](OC)C2)CC(=O)[C@H](C)/C=C(\\C)[C@@H](O)[C@@H](OC)C(=O)[C@H](C)C[C@H](C)/C=C/C=C/C=C/1C", "note": "[Rapamycin, rapamycin]", "values": [{"measurement": "concentration at 1 day", "setting": "in vivo; mongrel", "result": "9.3 ± 0.2", "unit": "ng/mL"}, {"measurement": "concentration at 2 day", "setting": "in vivo; mongrel", "result": "2 ± 0.1", "unit": "ng/mL"}, {"measurement": "concentration at 3 day", "setting": "in vivo; mongrel", "result": "1.9 ± 0.2", "unit": "ng/mL"}, {"measurement": "Rapamycin level in artery", "setting": "in vivo; mongrel, 7 day", "result": "2.9 ± 0.8", "unit": "μg/gm"}, {"measurement": "Rapamycin level in graft", "setting": "in vivo; mongrel, 14 day", "result": "12.8 ± 5.0", "unit": "µg"}, {"measurement": "Rapamycin level in graft", "setting": "in vivo; mongrel, 28 day", "result": "0.005 ± 0.001", "unit": "µg"}, {"measurement": "Detection of rapamycin in blood", "setting": "in vivo", "result": "not detectable"}, {"measurement": "Elution of rapamycin off grafts", "setting": "in vivo", "result": "majority of rapamycin eluted off grafts by one week"}, {"measurement": "concentration at 7 day", "setting": "in vivo", "result": 2900, "unit": "ng/g"}, {"measurement": "concentration at 28 day", "setting": "in vivo", "result": 25, "unit": "ng/g"}, {"measurement": "Rapamycin in the arterial wall", "setting": "[1]", "result": 0.32, "unit": "ng/mg"}, {"measurement": "current therapeutic rapamycin level", "setting": "[2]", "result": "8 to 17", "unit": "ng/mL"}]}]}
